Measured values taken from patent US20110086886A2, “INSECTICIDAL ISOXAZOLINES” (Bayer CropScience AG, priority 2006, published 2011).

Legend:
[1] = tested on: Myzus persicas resistant to organic phosphorous agents and carbamate agents; assay: Test for Myzus persicas resistant to organic phosphorous agents and carbamate agents; format: in vivo; details: effective component concentration of 500 ppm; spray on egg plant; 24 hours after spraying
Experimental: (§1) In order to obtain a preparation of a proper active compound, 1 part by weight of an active compound was mixed with the stated amounts of solvent and emulsifier and the mixture was diluted to a specified concentration with water.
About 200 head per plantlet of cultivated Myzus persicas resistant to phosphorous agents and carbamate agents were inoculated on an egg plant. The aqueous dilution containing the above prepared active compound having a specified concentration was sprayed on the egg plant in a sufficient amount by a spray gun one day after the inoculation. The egg plant was allowed to stand in a 28° C. green house, to calculate the insecticidal ratio 24 hours after the solution was sprayed. In this case, the test was made twice repeatedly.

Aulacophora femoralis = assay: Test for Aulacophora femoralis (spray test); format: in vivo; details: effective component concentration of 500 ppm; 2nd-instar, dipped cucumber leaves; after 7 days
Experimental: as §1
The leaves of cucumbers were dipped in the aqueous solution diluted to a specified concentration with water. After the chemical solution was dried in air, these leaves were placed in a plastic cup, in which sterilized black soil was placed. 5 Aulacophora femoralis of the 2nd-instar were set free in the soil, to examine the number of dead insects after 7 days, thereby calculating the insecticidal ratio of the chemical solution.

Spodoptera litura larvae = assay: Test for Spodoptera litura larvae (leaf dip); format: in vivo; details: effective component concentration of 500 ppm, 3rd-instar larvae on dipped sweet potato leaves, after 7 days; for pest or weed control at 500 ppm: foliar, 168 h, read-out: insecticidal ratio
Experimental: as §1
The leaves of sweat potatoes were dipped in the test solution diluted to a specified concentration with water. After these leaves were dried in air to remove the chemical solution, they were placed in a Petri dish of 9 cm in diameter, in which 10 Spodoptera litura larvae of the 3rd-instar were set free. The Petri dish was placed in a thermostatic chamber kept at 25° C. and the leaves of sweat potatoes were added after 2 days and 4 days, to examine the number of dead larvae after 7 days, thereby calculating the insecticidal ratio of the chemical solution.
In this test, an average of the results in two Petri dishes in one section was calculated.

[2] = tested on: Ctenocephalides felis, strain "Georgi"; assay: Test for cat fleas / oral uptake; format: in vivo; details: in Bos taurus, 48 h, read-out: kill (mortality)
Experimental: 20 mg of the active compound are dissolved in 1 ml dimethylsulphoxide To prepare a suitable formulation (e.g. 100 ppm), the active compound solution is diluted to the respective desired concentration with cattle blood (e.g. 1 part by weight active compound solution with 199 parts by weight cattle blood).
20 unfed adult fleas (Ctenocephalides felis, strain “Georgi”) are placed into a chamber (Ø 5 cm) whose top and bottom are closed with gauze. A metal cylinder whose underside is covered with parafilm is placed onto the chamber. The cylinder contains the blood/active compound formulation which can be taken up by the fleas through the parafilm membrane. Whereas the blood is warmed to 37° C., the temperature in the area of the flea chambers is adjusted to room temperature.
After the desired time the mortality in % is determined. Here 100% means that all fleas were killed; 0% means that no fleas were killed.

Lucilia cuprina larvae = assay: Test for Lucilia cuprina larvae; format: in vivo; details: 48 h, read-out: larval mortality
Experimental: 20 mg of active compound are dissolved in 1 ml of dimethyl sulphoxide. To prepare a suitable formulation (e.g. 100 ppm), the active compound solution is diluted to the respective desired concentration with water (e.g. 1 part by weight active compound solution with 199 parts by weight water).
Approximately 20 Lucilia cuprina larvae are introduced into a test tube which contains approx. 1 cm^3 horse meat and 0.5 ml of the active compound preparation to be tested. After 48 hours, the efficacy of the active compound preparation is determined as % larval mortality. 0%: no larvae were killed, 100%: all larvae were killed.

Structure (SMILES): N#Cc1cc(C2=NOC(c3cccc(C(F)(F)F)c3)(C(F)(F)F)C2)ccc1-n1cc([N+](=O)[O-])cn1 (stereo not shown) [Compound 38]
- insecticidal ratio [1]: 100%
- insecticidal ratio (Aulacophora femoralis): 100%
- insecticidal ratio (Spodoptera litura larvae): 100%

Structure (SMILES): N#Cc1cc(C2=NOC(c3cc(C(F)(F)F)cc(C(F)(F)F)c3)(C(F)(F)F)C2)ccc1-n1cncn1 (racemic) [Compound 135]
- insecticidal ratio [1]: 100%
- insecticidal ratio (Aulacophora femoralis): 100%
- insecticidal ratio (Spodoptera litura larvae): 100%

Structure (SMILES): FC(F)(F)C1(c2cc(Cl)cc(Cl)c2)CC(c2ccc(-n3cncn3)c(Br)c2)=NO1 (racemic) [Compound 97]
- insecticidal ratio (Aulacophora femoralis): 100%
- insecticidal ratio (Spodoptera litura larvae): 100%

Structure (SMILES): N#Cc1cc(C2=NOC(c3cccc(C(F)(F)F)c3)(C(F)(F)F)C2)ccc1-n1cncn1 (racemic) [Compound 126]
- insecticidal ratio (Aulacophora femoralis): 100%
- insecticidal ratio (Spodoptera litura larvae): 100%

Structure (SMILES): N#Cc1cc(C2=NOC(c3cc(Cl)cc(Cl)c3)(C(F)(F)F)C2)ccc1-n1cnnn1 (stereo not shown) [Compound 153]
- insecticidal ratio [1]: 100%
- insecticidal ratio (Aulacophora femoralis): 100%
- insecticidal ratio (Spodoptera litura larvae): 100%

Structure (SMILES): N#Cc1cc(C2=NOC(c3cc(Cl)cc(Cl)c3)(C(F)(F)F)C2)ccc1-n1cc(Cl)cn1 (stereo not shown) [Compound 17]
- mortality at 100 ppm [2]: > 80%
- pest or weed control at 500 ppm (Spodoptera litura larvae): 100%
- mortality at 100 ppm (Lucilia cuprina larvae): > 95%

Structure (SMILES): O=[N+]([O-])c1cc(C2=NOC(c3cccc(C(F)(F)F)c3)(C(F)(F)F)C2)ccc1-n1cncn1 (racemic) [Compound 127]
- insecticidal ratio (Aulacophora femoralis): 100%
- insecticidal ratio (Spodoptera litura larvae): 100%

Structure (SMILES): FC(F)(F)C1(c2cc(Cl)cc(Cl)c2)CC(c2ccc(-n3cncn3)c(Cl)c2)=NO1 (racemic) [Compound 94]
- insecticidal ratio (Aulacophora femoralis): 100%
- insecticidal ratio (Spodoptera litura larvae): 100%

Structure (SMILES): O=[N+]([O-])c1cc(C2=NOC(c3cc(Cl)cc(Cl)c3)(C(F)(F)F)C2)ccc1-n1cc(F)cn1 (stereo not shown) [Compound 25]
- insecticidal ratio (Aulacophora femoralis): 100%
- insecticidal ratio (Spodoptera litura larvae): 100%

Structure (SMILES): N#Cc1cc(C2=NOC(c3cccc(Cl)c3)(C(F)(F)F)C2)ccc1-n1cncn1 (stereo not shown) [Compound 89]
- insecticidal ratio (Aulacophora femoralis): 100%
- insecticidal ratio (Spodoptera litura larvae): 100%

Structure (SMILES): CC(=O)Nc1cc(C2=NOC(c3cc(Cl)cc(Cl)c3)(C(F)(F)F)C2)ccc1-n1cncn1 (stereo not shown) [Compound 106, N-{5-[5-(3,5-dichlorophenyl)-5-(trifluoromethyl)-4,5-dihydroisoxazol-3-yl]-2-(1H-1,2,4-triazol-1-yl)phenyl}acetamide]
- insecticidal ratio (Aulacophora femoralis): 100%
- pest or weed control at 500 ppm (Spodoptera litura larvae): 100%

Structure (SMILES): COc1cc(C2=NOC(c3cc(Cl)cc(Cl)c3)(C(F)(F)F)C2)ccc1-n1cncn1 (racemic) [Compound 103]
- insecticidal ratio (Aulacophora femoralis): 100%
- insecticidal ratio (Spodoptera litura larvae): 100%

Structure (SMILES): FC(F)(F)c1cccc(C2(C(F)(F)F)CC(c3ccc(-n4cncn4)cc3)=NO2)c1 (racemic) [Compound 122]
- insecticidal ratio (Aulacophora femoralis): 100%
- insecticidal ratio (Spodoptera litura larvae): 100%

Structure (SMILES): FC(F)(F)C1(c2cc(Cl)cc(Cl)c2)CC(c2ccc(-n3cnnn3)cc2)=NO1 (stereo not shown) [Compound 148, 1-{4-[5-(3,5-dichlorophenyl)-5-(trifluoromethyl)-4,5-dihydroisoxazol-3-yl]phenyl}-1H-tetrazole]
- insecticidal ratio (Aulacophora femoralis): 100%
- pest or weed control at 500 ppm (Spodoptera litura larvae): 100%

Structure (SMILES): FC(F)(F)c1cccc(C2(C(F)(F)F)CC(c3ccc(-n4cnnn4)cc3)=NO2)c1 (stereo not shown) [Compound 157]
- insecticidal ratio (Aulacophora femoralis): 100%
- insecticidal ratio (Spodoptera litura larvae): 100%

Structure (SMILES): FC(F)(F)c1nnnn1-c1ccc(C2=NOC(c3cc(Cl)cc(Cl)c3)(C(F)(F)F)C2)cc1 (stereo not shown)
- melting point: 147 to 151 °C

Structure (SMILES): FC(F)(F)C1(c2cc(Cl)cc(Cl)c2)CC(c2ccc(-n3cnnn3)c(Cl)c2)=NO1 (racemic) [Compound 150]
- insecticidal ratio (Aulacophora femoralis): 100%
- insecticidal ratio (Spodoptera litura larvae): 100%

Structure (SMILES): FC(F)(F)c1cc(C(F)(F)F)cc(C2(C(F)(F)F)CC(c3ccc(-n4cncn4)cc3)=NO2)c1 (racemic) [Compound 132]
- insecticidal ratio (Aulacophora femoralis): 100%
- insecticidal ratio (Spodoptera litura larvae): 100%

Structure (SMILES): O=[N+]([O-])c1cc(C2=NOC(c3cc(Cl)cc(Cl)c3)(C(F)(F)F)C2)ccc1-n1cncn1 (stereo not shown) [Compound 104, 1-{4-[5-[3,5-dichlorophenyl]-5-(trifluoromethyl)-4,5-dihydroisoxazol-3-yl]-2-nitrophenyl}-1H-1,2,4-triazole]
- insecticidal ratio (Aulacophora femoralis): 100%
- pest or weed control at 500 ppm (Spodoptera litura larvae): 100%

Structure (SMILES): FC(F)(F)C1(c2cc(Cl)cc(Cl)c2)CC(c2ccc(-n3cncn3)nc2)=NO1 (racemic) [Compound 114]
- insecticidal ratio (Aulacophora femoralis): 100%
- insecticidal ratio (Spodoptera litura larvae): 100%

Structure (SMILES): O=[N+]([O-])c1cc(C2=NOC(c3cccc(Cl)c3)(C(F)(F)F)C2)ccc1-n1cncn1 (racemic) [Compound 90]
- insecticidal ratio (Aulacophora femoralis): 100%
- insecticidal ratio (Spodoptera litura larvae): 100%

Structure (SMILES): N#Cc1cc(C2=NOC(c3cc(Cl)cc(Cl)c3)(C(F)(F)F)C2)ccc1-n1cncn1 (stereo not shown) [Compound 101, 5-[5-(3,5-dichlorophenyl)-5-(trifluoromethyl)-4,5-dihydroisoxazol-3-yl)-2-(1H-1,2,4-triazol-1-yl)benzonitrile]
- insecticidal ratio [1]: 100%
- insecticidal ratio (Aulacophora femoralis): 100%
- pest or weed control at 500 ppm (Spodoptera litura larvae): 100%

Structure (SMILES): FC(F)(F)C1(c2cc(Cl)cc(Cl)c2)CC(c2ccc(-n3cccc3)cc2)=NO1 (stereo not shown)
- melting point: 206 to 208 °C
